Measurements reported in ChEMBL document CHEMBL1201862, “PubChem BioAssay data set” (2004).
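Values below derive from 48-hour exposures of cells grown in 96-well plates, with endpoints linearly interpolated between the two concentrations bracketing the appropriate inhibition level. GI50: concentration for 50% inhibition of growth.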 Activity calls are given as the source filed them. No stated cut-off is given here; in the data, active = GI50 up to about 1.1 µM and inactive = higher.

Key:
Assay in all cases: NCI tumour cell line growth inhibition, 48 h
786-0 = tested on: 786-0
A498 = tested on: A498
A549 = tested on: A549
ACHN = tested on: ACHN
BT-549 = tested on: BT-549
CAKI-1 = tested on: CAKI-1
CCRF-CEM = tested on: CCRF-CEM
COLO 205 = tested on: COLO 205
EKVX = tested on: EKVX
HCC 2998 = tested on: HCC 2998
HCT-116 = tested on: HCT-116
HCT-15 = tested on: HCT-15
HOP-62 = tested on: HOP-62
HT-29 = tested on: HT-29
Hs-578T = tested on: Hs-578T
K562 = tested on: K562
KM12 = tested on: KM12
M14 = tested on: M14
MCF7 = tested on: MCF7
MDA-MB-231 = tested on: MDA-MB-231
MDA-MB-435 = tested on: MDA-MB-435
MDA-N = tested on: MDA-N
MOLT-4 = tested on: MOLT-4
Malme-3M = tested on: Malme-3M
NCI-H226 = tested on: NCI-H226
NCI-H23 = tested on: NCI-H23
NCI-H460 = tested on: NCI-H460
NCI/ADR-RES = tested on: NCI/ADR-RES
OVCAR-3 = tested on: OVCAR-3
OVCAR-4 = tested on: OVCAR-4
OVCAR-5 = tested on: OVCAR-5
OVCAR-8 = tested on: OVCAR-8
PC-3 = tested on: PC-3
RPMI-8226 = tested on: RPMI-8226
RXF 393 = tested on: RXF 393
SF-268 = tested on: SF-268
SF-295 = tested on: SF-295
SF-539 = tested on: SF-539
SK-MEL-28 = tested on: SK-MEL-28
SK-MEL-2 = tested on: SK-MEL-2
SK-OV-3 = tested on: SK-OV-3
SN12C = tested on: SN12C
SNB-19 = tested on: SNB-19
SNB-75 = tested on: SNB-75
SW-620 = tested on: SW-620
T47D = tested on: T47D
U-251 = tested on: U-251
UACC-257 = tested on: UACC-257
UACC-62 = tested on: UACC-62
UO-31 = tested on: UO-31
DU-145 = tested on: DU-145
HL-60 = tested on: HL-60
HOP-92 = tested on: HOP-92
IGROV-1 = tested on: IGROV-1
NCI-H522 = tested on: NCI-H522
SK-MEL-5 = tested on: SK-MEL-5
SR = tested on: SR
TK-10 = tested on: TK-10
LOX IMVI = tested on: LOX IMVI

Measured: GI50

COc1cccc(/C=N/n2c(C)n[nH]c2=O)c1
> 100 µM: HCT-15
inactive: 786-0 > 100 µM | A498 25.5 µM | A549 > 100 µM | ACHN > 100 µM | BT-549 92.9 µM | CAKI-1 60.5 µM | CCRF-CEM > 100 µM | COLO 205 > 100 µM | EKVX 32 µM | HCC 2998 > 100 µM | HCT-116 > 100 µM | HOP-62 80.7 µM | HT-29 > 100 µM | Hs-578T 16.8 µM | K562 > 100 µM | KM12 > 100 µM | M14 > 100 µM | MCF7 > 100 µM | MDA-MB-231 > 100 µM | MDA-MB-435 > 100 µM | MDA-N > 100 µM | MOLT-4 > 100 µM | Malme-3M > 100 µM | NCI-H226 95.1 µM | NCI-H23 > 100 µM | NCI-H460 > 100 µM | NCI/ADR-RES > 100 µM | OVCAR-3 25.9 µM | OVCAR-4 > 100 µM | OVCAR-5 > 100 µM | OVCAR-8 > 100 µM | PC-3 > 100 µM | RPMI-8226 > 100 µM | RXF 393 18.8 µM | SF-268 > 100 µM | SF-295 > 100 µM | SF-539 > 100 µM | SK-MEL-28 > 100 µM | SK-MEL-2 > 100 µM | SK-OV-3 > 100 µM | SN12C > 100 µM | SNB-19 > 100 µM | SNB-75 58.7 µM | SW-620 > 100 µM | T47D > 100 µM | U-251 > 100 µM | UACC-257 > 100 µM | UACC-62 69.3 µM | UO-31 > 100 µM

O=[N+]([O-])c1cccc(-c2ccc([C@H]3CC(c4ccc(Cl)cc4)=NN3)o2)c1
inactive: 786-0 14.6 µM | A498 31.6 µM | A549 > 100 µM | ACHN 17.7 µM | BT-549 17.6 µM | CAKI-1 26.1 µM | CCRF-CEM 1.43 µM | COLO 205 > 100 µM | DU-145 15.3 µM | EKVX 70 µM | HCC 2998 16.6 µM | HCT-116 15.2 µM | HOP-62 20.3 µM | HOP-92 17.3 µM | HT-29 21.3 µM | Hs-578T 58.9 µM | IGROV-1 21 µM | K562 19.1 µM | M14 30.1 µM | MCF7 16.3 µM | MDA-MB-435 19.2 µM | MDA-N 24 µM | Malme-3M 15.8 µM | NCI-H226 25.5 µM | NCI-H522 21.2 µM | NCI/ADR-RES 7.83 µM | OVCAR-3 18.9 µM | OVCAR-4 23.2 µM | OVCAR-5 31.7 µM | OVCAR-8 12.3 µM | RPMI-8226 14.3 µM | RXF 393 16.8 µM | SF-268 27 µM | SF-295 44.8 µM | SK-MEL-5 13.8 µM | SK-OV-3 28.8 µM | SN12C 16.7 µM | SNB-19 38.4 µM | SNB-75 14.7 µM | SW-620 19.5 µM | T47D 11.4 µM | TK-10 19.6 µM | UACC-257 31.7 µM | UACC-62 16.3 µM | UO-31 22.1 µM
5.15 µM: HCT-15
active: HL-60 0.893 µM | MOLT-4 0.891 µM | SR 0.433 µM

CCOP(=O)(OCC)/C(C#N)=C/c1cccn1CC(C)C
inactive: 786-0 > 100 µM | A498 > 100 µM | A549 > 100 µM | ACHN > 100 µM | BT-549 > 100 µM | CAKI-1 > 100 µM | COLO 205 > 100 µM | DU-145 > 100 µM | EKVX > 100 µM | HCC 2998 > 100 µM | HCT-116 > 100 µM | HOP-62 > 100 µM | HOP-92 > 100 µM | HT-29 > 100 µM | IGROV-1 > 100 µM | K562 39.9 µM | KM12 89.9 µM | LOX IMVI > 100 µM | M14 > 100 µM | MCF7 > 100 µM | MDA-MB-231 57.3 µM | MDA-MB-435 > 100 µM | MDA-N > 100 µM | MOLT-4 52.5 µM | Malme-3M > 100 µM | NCI-H226 35.7 µM | NCI-H23 > 100 µM | NCI-H460 > 100 µM | NCI-H522 81.8 µM | NCI/ADR-RES > 100 µM | OVCAR-3 > 100 µM | OVCAR-5 > 100 µM | OVCAR-8 > 100 µM | PC-3 93.3 µM | RXF 393 > 100 µM | SF-268 > 100 µM | SF-295 > 100 µM | SF-539 > 100 µM | SK-MEL-28 > 100 µM | SK-MEL-2 > 100 µM | SK-MEL-5 40.9 µM | SK-OV-3 > 100 µM | SN12C > 100 µM | SNB-19 > 100 µM | SNB-75 > 100 µM | SR > 100 µM | SW-620 > 100 µM | T47D 36.6 µM | TK-10 > 100 µM | U-251 > 100 µM | UACC-257 > 100 µM | UACC-62 > 100 µM | UO-31 61.4 µM
> 100 µM: HCT-15
